Measured values reported in patent publication US20030013660A1, “Dioxolane analogs for improved inter-cellular delivery” (Shire BioChem Inc., priority 2000, published 2003).
Read-outs that look alike come from different tables or passages of the source.

Key:
Test in all cases: 3H-TdR (3H-thymidine) incorporation assay at 72 hr
[1] = tested on: H-460; assay type: cell-based, Human; conditions: Homo sapiens
[2] = tested on: MCF-7; assay type: cell-based, Human; conditions: Homo sapiens
[3] = tested on: SF-268; assay type: cell-based, Human; conditions: Homo sapiens
[4] = tested on: CCRF-CEM; assay type: cell-based; conditions: Homo sapiens, CCRF-CEM
Method: (§1) Table of IC50 Values (μM) for Controls
(§2) Exposition of 24 hr to drug, wash, incubated for another 48 hr (total of 72 hr assay)
(§3) (3H-Thymidine Incorporation Assay)

[5] = tested on: CEM/dCK-; assay type: cell-based; conditions: for IC50: Homo sapiens, CCRF-CEM; for Factor* (Resistance Factor = Ratio of dCK- on Wild-type CCRF-CEM): ratio of IC50 CEM/dCK- to CCRF-CEM, 24 h
Method: as §1, §2, §3

[6] = NCI-H460, read-out: IC50 H-460 24 h, 24 h drug exposure, wash, another 48 hr, 3H-TdR incorporation at 72 hr
[7] = MCF7, read-out: IC50 MCF-7 24 h, 24 h drug exposure, wash, another 48 hr, 3H-TdR incorporation at 72 hr
[8] = SF-268, read-out: IC50 SF-268 24 h, 24 h drug exposure, wash, another 48 hr, 3H-TdR incorporation at 72 hr
[9] = read-out: IC50 CCRF-CEM 24 h, 24 h drug exposure, wash, another 48 hr, 3H-TdR incorporation at 72 hr
[10] = read-out: IC50 CEM/dCK- 24 h, 24 h drug exposure, wash, another 48 hr, deoxycytidine kinase-deficient CCRF-CEM

Work on CCOC(=O)Nc1ccn([C@@H]2CO[C@H](COC(=O)OCC)O2)c(=O)n1 [Compound 47, CARBONIC ACID 4-(4- ETHOXYCARBONYLAMINO-2- OXO-2H-PYRIMIDIN-1-YL)- [1,3]DIOXOLAN-2- YLMETHYL ESTER ETHYL ESTER] yielded an IC50 [1, 6] of 1800 nM, an IC50 [2, 7] of 2400 nM and an IC50 [3, 8] of 38000 nM. For the same compound, the IC50 [4, 9] was 2900 nM, the IC50 [5, 10] was greater than 100000 nM and the “Factor* (Resistance Factor = Ratio of dCK- on Wild-type CCRF-CEM)” value [5] was 34.
CC(C)(C)C(=O)Nc1ccn([C@@H]2CO[C@H](CO)O2)c(=O)n1 [Compound 49, N-[1-(2-HYDROXYMETHYL- [1,3]DIOXOLAN-4-YL)- CYTOSYL]-2,2-DIMETHYL- PROPIONAMIDE] was tested, and the IC50 [1, 6] was 4500 nM, the IC50 [2, 7] was 8800 nM and the IC50 [3, 8] was 7100 nM. The IC50 [4, 9] was 570 nM, the IC50 [5, 10] was greater than 100000 nM and the “Factor* (Resistance Factor = Ratio of dCK- on Wild-type CCRF-CEM)” value [5] was 175.
In the case of O=C(Nc1ccn([C@@H]2CO[C@H](CO)O2)c(=O)n1)OCc1ccccc1 [Compound 50, [1-(2-HYDROXYMETHYL- [1,3]DIOXOLAN-4-YL)- CYTOSYL]-CARBAMIC ACID BENZYL ESTER], the IC50 [1, 6] is reported as 1200 nM, the IC50 [2, 7] is reported as 820 nM and the IC50 [3, 8] is reported as 1300 nM. For the same compound, the IC50 [4, 9] was 170 nM, the IC50 [5, 10] was greater than 100000 nM and the “Factor* (Resistance Factor = Ratio of dCK- on Wild-type CCRF-CEM)” value [5] was 588.
O=C(Nc1ccn([C@@H]2CO[C@H](COC(=O)OCc3ccccc3)O2)c(=O)n1)OCc1ccccc1 [Compound 51, 4-(4- BENZYLOXYCARBONYLAMINOC YTOSYL)-[1,3]DIOXOLAN- 2-YLMETHYL BENZYL CARBONATE] gave an IC50 [1, 6] of 830 nM, an IC50 [2, 7] of 570 nM and an IC50 [3, 8] of 860 nM. The IC50 [4, 9] was 24 nM, the IC50 [5, 10] was 47000 nM and the “Factor* (Resistance Factor = Ratio of dCK- on Wild-type CCRF-CEM)” value [5] was 1,958.
Nc1ccn([C@@H]2CO[C@H](COC(=O)Cc3ccccc3)O2)c(=O)n1 [Compound 52, (2S,4S)-2- PHENYLACETOXYMETHYL-4- CYTOSIN-1′-YL-1,3- DIOXOLANE] gave an IC50 ([1]; NCI-H460, read-out: IC50 H-460 24 h) of 6.8 nM, an IC50 ([2]; MCF7, read-out: IC50 MCF-7 24 h) of 88 nM and an IC50 ([3]; SF-268, read-out: IC50 SF-268 24 h) of 32 nM. For the same compound, the IC50 ([4]; read-out: IC50 CCRF-CEM 24 h) was 1.2 nM, the IC50 ([5]; read-out: IC50 CEM/dCK- 24 h) was 480 nM and the “Factor* (Resistance Factor = Ratio of dCK- on Wild-type CCRF-CEM)” value [5] was 400.
COC(C)(C)OC[C@H]1OC[C@@H](n2ccc(N)nc2=O)O1 [Compound 54, 4-AMINO-1-[2-(1- METHOXY-1-METHYL- ETHOXYMETHYL)- [1,3]DIOXOLAN-4-YL]-1H- PYRIMIDIN-2-ONE] was tested, and the IC50 [1, 6] was 170 nM, the IC50 [2, 7] was 500 nM and the IC50 [3, 8] was 700 nM. The IC50 [4, 9] was 120 nM, the IC50 [5, 10] was 65000 nM and the “Factor* (Resistance Factor = Ratio of dCK- on Wild-type CCRF-CEM)” value [5] was 542.
CCCCCCCC(=O)Nc1ccn([C@@H]2CO[C@H](CO)O2)c(=O)n1 [Compound 55, OCTANOIC ACID [1-(2- HYDROXYMETHYL- [1,3]DIOXOLAN-4-YL)-2- OXO-1, 2-DIHYDRO- PYRIMIDIN-4-YL]-AMIDE] was tested, and the IC50 [1, 6] was 29 nM, the IC50 [2, 7] was 7.8 nM and the IC50 [3, 8] was 47 nM. For the same compound, the IC50 [4, 9] was 12 nM, the IC50 [5, 10] was 64000 nM and the “Factor* (Resistance Factor = Ratio of dCK- on Wild-type CCRF-CEM)” value [5] was 5,333.
CC(C)(C)C(=O)OCOC[C@H]1OC[C@@H](n2ccc(N)nc2=O)O1 [Compound 58, 2,2-DIMETHYL-PROPIONIC ACID 4-(4-AMINO-2-OXO- 2H-PYRIMIDIN-1-YL)- [1,3]DIOXOLAN-2- YLMETHOXYMETHYL ESTER] was tested, and the IC50 [1, 6] was 12 nM, the IC50 [2, 7] was 16 nM and the IC50 [3, 8] was 130 nM. For the same compound, the IC50 [4, 9] was 14 nM, the IC50 [5, 10] was 38000 nM and the “Factor* (Resistance Factor = Ratio of dCK- on Wild-type CCRF-CEM)” value [5] was 2,714.
CCCCOC(=O)Nc1ccn([C@@H]2CO[C@H](CO)O2)c(=O)n1 [Compound 59, [1-(2-HYDROXYMETHYL- [1,3]DIOXOLAN-4-YL)-2- OXO-1,2-DIHYDRO- PYRIMIDIN-4-YL]- CARBAMIC ACID BUTYL ESTER] showed an IC50 [1, 6] of 1400 nM, an IC50 [2, 7] of 190 nM and an IC50 [3, 8] of 690 nM. The IC50 [4, 9] was 540 nM, the IC50 [5, 10] was greater than 100000 nM and the “Factor* (Resistance Factor = Ratio of dCK- on Wild-type CCRF-CEM)” value [5] was 185.
Compound COCCOCOC[C@H]1OC[C@@H](n2ccc(N)nc2=O)O1 [Compound 62, 4-AMINO-1-[2-(2- METHOXY- ETHOXYMETHOXYMETHYL)- [1,3]DIOXOLAN-4-YL]-1H- PYRIMIDIN-2-ONE] has an IC50 [1, 6] of 890 nM, an IC50 [2, 7] of 1700 nM and an IC50 [3, 8] of 4300 nM. For the same compound, the IC50 [4, 9] was 350 nM, the IC50 [5, 10] was greater than 100000 nM and the “Factor* (Resistance Factor = Ratio of dCK- on Wild-type CCRF-CEM)” value [5] was 288.
